Laboratory results reported in patent US20240131032A1, “AN ACTIVITY-GUIDED MAP OF ELECTROPHILE-CYSTEINE INTERACTIONS IN PRIMARY HUMAN IMMUNE CELLS” (The Scripps Research Institute, priority 2019, published 2024).

Target: T1, ERCC3 (Homo sapiens, UniProt P19447)
T1 construct: endogenous in cells; host or cells: primary human T cells
T1 sequence (P19447 1-782): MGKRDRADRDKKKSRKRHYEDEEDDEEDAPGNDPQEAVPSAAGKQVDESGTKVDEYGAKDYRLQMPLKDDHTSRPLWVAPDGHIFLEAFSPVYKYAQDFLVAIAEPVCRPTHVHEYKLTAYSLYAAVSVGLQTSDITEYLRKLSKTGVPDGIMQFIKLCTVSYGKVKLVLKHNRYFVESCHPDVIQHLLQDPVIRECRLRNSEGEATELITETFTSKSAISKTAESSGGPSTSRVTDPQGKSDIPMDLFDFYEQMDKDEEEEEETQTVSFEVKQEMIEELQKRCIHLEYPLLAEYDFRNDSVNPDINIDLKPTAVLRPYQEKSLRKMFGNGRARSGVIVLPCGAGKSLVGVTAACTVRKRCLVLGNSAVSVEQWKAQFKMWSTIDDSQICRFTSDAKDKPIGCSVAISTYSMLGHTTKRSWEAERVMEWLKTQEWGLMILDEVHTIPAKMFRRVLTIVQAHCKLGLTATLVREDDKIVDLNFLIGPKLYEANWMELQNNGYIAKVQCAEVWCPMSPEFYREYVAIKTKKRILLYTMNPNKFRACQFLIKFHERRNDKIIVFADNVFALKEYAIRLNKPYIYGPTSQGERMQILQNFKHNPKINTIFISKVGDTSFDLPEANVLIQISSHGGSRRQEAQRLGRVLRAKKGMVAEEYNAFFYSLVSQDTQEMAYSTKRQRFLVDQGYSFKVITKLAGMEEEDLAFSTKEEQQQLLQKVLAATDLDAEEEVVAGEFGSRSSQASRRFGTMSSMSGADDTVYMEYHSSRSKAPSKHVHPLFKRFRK
Assay: isoTOP-ABPP and TMT-ABPP cysteine engagement, ERCC3
Type: binding
Method: Activated or expanded T cells were re-suspended in RPMI media supplemented with 10% FBS, L-glutamine (2 mM), penicillin (100 U/mL), and streptomycin (100 μg/mL) at 2×10^6 cells/mL. The compounds were added to cells as 1000×DMSO stocks and mixed well with the media by pipetting up and down after addition. The cells were kept at 37° C. in 5% CO2 containing incubators for 3 h (or otherwise specified times), then pelleted by centrifugation (524 g, 5 min, 4° C.), washed with cold PBS (10 mL) and transferred to Eppendorf tubes (1 mL PBS). The cells were pelleted again (524 g, 5 min, 4° C.), flash-frozen, and kept at −80° C. until further analysis.
Activated or expanded primary human T cells were re-suspended in RPMI (1×10^6 cells/mL) containing 10% fetal bovine serum (FBS), penicillin (100 U/mL), streptomycin ([…]), and L-glutamine (2 mM). The cells were treated with DMSO or compounds for 3 h, pelleted (524 g, 5 min), washed with PBS, and lysed by sonication (2×8 pulses). Soluble and particulate proteomic fractions were separated by ultracentrifugation (100,000 g, 45 min), and protein concentration was normalized to 1.7 mg/mL using a standard DC protein assay (Bio-Rad). The resulting proteomes were analyzed by competitive isotopic Tandem Orthogonal Proteolysis Activity-Based Protein Profiling (isoTOP-ABPP).
Samples (500 μL, 1.7 mg/mL) were treated with iodoacetamide alkyne (IA-alkyne, 5 μL of 10 mM stock in DMSO, final concentration: 100 μM) for 1 h at ambient temperature. Modified proteins were then conjugated to isotopically labeled, TEV-cleavable biotin tags (TEV-tags) using copper-catalyzed azide-alkyne cycloaddition reaction (CuAAC). Reagents for the CuAAC reaction were pre-mixed prior to their addition to the proteome samples. […]
The heavy/light isoTOP-ABPP ratios (R values) for each unique peptide (DMSO/compound treated) were quantified with in-house CIMAGE software (Weerapana et al., 2010) using default parameters (3 MS1 acquisitions per peak and signal to noise threshold set to 2.5). Site-specific engagement of cysteine residues was assessed by blockade of IA-alkyne probe labeling. […] Ratios for unique peptide sequences were calculated for each experiment; overlapping peptides with the same modified cysteine (e.g., different charge states, elution times or tryptic termini) were grouped together and the median ratio was reported as the final ratio (R). […]

Structure (SMILES)	engagement of C342 of ERCC3	efficacy at ERCC3 C342, BPK-21 with respect to BPK-25
C=CC(=O)N(Cc1cccc(Cl)n1)c1ccc(C(=O)Nc2ccccc2)nc1 [BPK-25]	alkylating C342	–
C=CC(=O)N(Cc1cccc(Cl)c1Cl)c1ccc(Oc2ccccc2)c(C(F)(F)F)c1 [BPK-21]	alkylating C342	higher efficacy
